What was measured:
Aβ in lumbar CSF = conditions: after oral dosing of 30 or 90 mg, healthy volunteers; cited from earlier work
[1] = tested on: pigment epithelium of the rat's eye; conditions: higher compound dose given for three months; cited from earlier work
[2] = target: Beta Secretase enzyme (BACE1) (Homo sapiens (Human), UniProt P56817); experiment: In vitro enzymatic BACE FRET assay; assay type: biochemical
Description: In Vitro Enzymatic BACE FRET (Fluorescence Resonance Energy Transfer) Assay (Enzyme Assay Data in the Example Tables I and II)
The assay buffer used in this screen is 0.05 M acetate, pH 4.2, 10% DMSO final, 100 uM genapol (which is a nonionic detergent, below its Critical Micelle Concentration). […] This assay is effectively started by the addition of FRET substrate (50 nM) and the combination is incubated for one hour. The FRET assay is terminated with by addition of Tris buffer, which raises the pH to neutrality, and the fluorescence is determined. The FRET substrate is a peptide with commercially available fluorophore and quencher, on opposite sides of the BACE cleavage site. Proteolytic cleavage of the FRET substrate releases quenching of fluorescence (excitation […] and […]).

[3] = tested on: Aβ40 in conditioned medium of cells stably expressing Amyloid Precursor Protein (APP); experiment: In vitro BACE cell-based assay (HEK cell assay), Aβ40 sandwich ELISA
Description: In Vitro BACE Cell-Based Assay
The cell-based assay measures inhibition or reduction of Aβ40 in conditioned medium of test compound treated cells expressing amyloid precursor protein.
Cells stably expressing Amyloid Precursor Protein (APP) were plated at a density of 40K cells/well in 96 well plates (Costar). The cells were cultivated for 24 hours at 37° C. and 5% CO2 in DMEM supplemented with 10% FBS. The test compounds were then added to cells in 10-point dose response concentrations with the starting concentration being either 100 μM or 10 μM. The compounds were diluted from stock solutions in DMSO and the final DMSO concentration of the test compounds on cells was 0.1%. After 24 h of incubation with the test compounds the supernatant conditioned media was collected and the Aβ 40 levels were determined using a sandwich ELISA. The IC50 of the compound was calculated from the percent of control or percent inhibition of Aβ 40 as a function of the concentration of the test compound.
The sandwich ELISA to detect Aβ 40 was performed in 96 well microtiter plates, which were pre-treated with goat anti-rabbit IgG (Pierce). The capture and detecting antibody pair that were used to detect Aβ 40 from cell supernatants were affinity purified pAb40 (Biosource) and biotinylated 6E10 (Signet Labs Inc.), respectively. The optimal concentration for the pAb40 antibody was 3 μg/ml in Superblock/TBS (Pierce) that was supplemented with 0.05% Tween 20 (Sigma).
Cellular supernatants were incubated with the capture antibody for 3 h at 4° C., followed by 3 wash steps in TBS-tween (0.05%). The detecting antibody incubation was for 2 h at 4° C., again followed by the wash steps as described previously. The final readout of the ELISA is Time-Resolved Fluorescence (counts per minute) using Delfia reagents Streptavidin-Europium and Enhancement solutions (Perkin Elmer) and the Victor 2 multilabel counter (Perkin Elmer).

Cathepsin D (Cat D) = Cathepsin D (Cat D) (Homo sapiens (Human), UniProt P07339); experiment: In vitro enzymatic Cathepsin D (Cat D) FRET assay; assay type: biochemical; conditions: read-out: CatD IC50
Description: In Vitro Enzymatic Cathepsin D (Cat D) FRET (Fluorescence Resonance Energy Transfer) Assay Recombinant Cat D was expressed in CHO cells. […] The Cat D enzyme (9 nM) is pre-incubated for one hour with inhibitors, typically in about 1 uL of DMSO according to a serial dilution, is added thereto. […] The FRET assay is terminated with by addition of Tris buffer, which raises the pH to neutrality, and the fluorescence is determined. The FRET substrate is a peptide with commercially available fluorophore and quencher, on opposite sides of the BACE cleavage site. The Cat D substrate peptide sequence is based on sequence #1 of Table 1 from Gulnik et al. […] Where available, the in-vitro Cat D FRET assay data for each of the Examples, conducted by the first procedure, is provided.

Beta Secretase enzyme (BACE1), sequence (P56817 46-501): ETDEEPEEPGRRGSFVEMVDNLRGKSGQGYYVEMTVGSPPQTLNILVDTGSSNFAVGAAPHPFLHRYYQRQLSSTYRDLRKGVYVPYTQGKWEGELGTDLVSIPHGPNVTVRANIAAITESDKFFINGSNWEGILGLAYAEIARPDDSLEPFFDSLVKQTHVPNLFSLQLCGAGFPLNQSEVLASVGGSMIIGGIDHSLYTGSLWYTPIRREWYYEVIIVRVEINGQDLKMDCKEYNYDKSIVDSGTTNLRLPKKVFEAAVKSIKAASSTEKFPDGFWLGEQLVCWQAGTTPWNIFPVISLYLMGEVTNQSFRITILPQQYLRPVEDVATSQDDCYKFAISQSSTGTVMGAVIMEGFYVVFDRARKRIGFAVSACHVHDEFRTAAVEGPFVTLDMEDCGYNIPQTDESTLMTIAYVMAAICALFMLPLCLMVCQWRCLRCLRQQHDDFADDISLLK
Cathepsin D (Cat D), sequence (P07339 65-412, species assumed): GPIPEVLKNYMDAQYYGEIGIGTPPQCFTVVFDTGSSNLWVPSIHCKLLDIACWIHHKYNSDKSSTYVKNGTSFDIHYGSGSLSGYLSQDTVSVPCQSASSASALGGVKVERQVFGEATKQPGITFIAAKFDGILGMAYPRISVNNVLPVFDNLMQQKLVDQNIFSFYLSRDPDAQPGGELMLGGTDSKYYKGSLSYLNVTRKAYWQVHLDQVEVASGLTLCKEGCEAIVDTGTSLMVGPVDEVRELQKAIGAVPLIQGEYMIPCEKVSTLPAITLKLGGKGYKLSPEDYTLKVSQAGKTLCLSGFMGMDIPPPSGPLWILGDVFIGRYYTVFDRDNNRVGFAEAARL

Molecule: C[C@@]1(c2cc(-c3cncnc3)c(F)cc2F)CCSC(N)=N1 [LY2811376, (S)-4-(2,4-difluoro-5-pyrimidin-5-yl-phenyl)-4-methyl-5,6-dihydro-4H-[1,3]thiazin-2-ylamine]
- Aβ reductions in lumbar CSF (Aβ in lumbar CSF): Prominent and long-lasting Aβ reductions in lumbar CSF

Molecule: C[C@@]1(c2cc(-c3cncnc3)c(F)cc2F)CCSC(N)=N1 [LY 2811376]
- rat toxicology finding [1]: damaged the pigment epithelium of the rat's eye

Molecule: N-(3-((4aR,7aS)-3-amino-2,2-dimethyl-1,1-dioxido-7,7a-dihydro-2H-furo[3,4-b][1,4]thiazin-4a(5H)-yl)-4-fluorophenyl)-5-methoxy-3-methyl-2-pyridinecarboxamide,N-(3-((4aS,7aR)-3-amino-2,2-dimethyl-1,1-dioxido-7,7a-dihydro-2H-furo[3,4-13][1,4]thiazin-4a(5H)-yl)-4-fluorophenyl)-5-methoxy-3-methyl-2-pyridinecarboxamide [Example 428]
- IC50 ([2]; average IC50, enzyme assay): 9.71 nM
- IC50 ([3]; average IC50, cell assay): 37.3 nM
- IC50 (Cathepsin D (Cat D)): 309000 nM

Molecule: N-(3-((7R)-9-amino-7-(fluoromethyl)-5,5-dioxido-5-thia-8-azaspiro[3.5]non-8-en-7-yl)-4-fluorophenyl)-3-chloro-1,7-naphthyridin-8-amine,N-(3-((7S)-9-amino-7-(fluoromethyl)-5,5-dioxido-5-thia-8-azaspiro[3.5]non-8-en-7-yl)-4-fluorophenyl)-3-chloro-1,7-naphthyridin-8-amine [Example 243]
- IC50 ([2]; average IC50): 1.31 nM
- IC50 ([3]; average IC50): 77.9 nM
- IC50 (Cathepsin D (Cat D)): 363000 nM

Molecule: N-(3-((7R)-9-amino-7-(fluoromethyl)-5,5-dioxido-5-thia-8-azaspiro[3.5]non-8-en-7-yl)-4-fluorophenyl)-5-(difluoromethoxy)-3-methyl-2-pyridinecarboxamide,N-(3-((7S)-9-amino-7-(fluoromethyl)-5,5-dioxido-5-thia-8-azaspiro[3.5]non-8-en-7-yl)-4-fluorophenyl)-5-(difluoromethoxy)-3-methyl-2-pyridinecarboxamide [Example 410]
- IC50 ([2]; average IC50): 2.3 nM
- IC50 ([3]; average IC50): 11.9 nM
- IC50 (Cathepsin D (Cat D)): 170000 nM
